Article PMC10117049, “RND Pump-Mediated Efflux of Amotosalen, a Compound Used in Pathogen Inactivation Technology to Enhance Safety of Blood Transfusion Products, May Compromise Its Gram-Negative Anti-Bacterial Activity” (mSphere, 2023)
Read-outs that look alike come from different tables or passages of the source.

How the values were obtained:
AdeB = AdeB (Acinetobacter baumannii, UniProt Q2FD70); test: fluorescence polarization titration using the inherent fluorescence of amotosalen ([…]); assay type: binding
Chain of AdeB (Q2FD70 entry or part of it): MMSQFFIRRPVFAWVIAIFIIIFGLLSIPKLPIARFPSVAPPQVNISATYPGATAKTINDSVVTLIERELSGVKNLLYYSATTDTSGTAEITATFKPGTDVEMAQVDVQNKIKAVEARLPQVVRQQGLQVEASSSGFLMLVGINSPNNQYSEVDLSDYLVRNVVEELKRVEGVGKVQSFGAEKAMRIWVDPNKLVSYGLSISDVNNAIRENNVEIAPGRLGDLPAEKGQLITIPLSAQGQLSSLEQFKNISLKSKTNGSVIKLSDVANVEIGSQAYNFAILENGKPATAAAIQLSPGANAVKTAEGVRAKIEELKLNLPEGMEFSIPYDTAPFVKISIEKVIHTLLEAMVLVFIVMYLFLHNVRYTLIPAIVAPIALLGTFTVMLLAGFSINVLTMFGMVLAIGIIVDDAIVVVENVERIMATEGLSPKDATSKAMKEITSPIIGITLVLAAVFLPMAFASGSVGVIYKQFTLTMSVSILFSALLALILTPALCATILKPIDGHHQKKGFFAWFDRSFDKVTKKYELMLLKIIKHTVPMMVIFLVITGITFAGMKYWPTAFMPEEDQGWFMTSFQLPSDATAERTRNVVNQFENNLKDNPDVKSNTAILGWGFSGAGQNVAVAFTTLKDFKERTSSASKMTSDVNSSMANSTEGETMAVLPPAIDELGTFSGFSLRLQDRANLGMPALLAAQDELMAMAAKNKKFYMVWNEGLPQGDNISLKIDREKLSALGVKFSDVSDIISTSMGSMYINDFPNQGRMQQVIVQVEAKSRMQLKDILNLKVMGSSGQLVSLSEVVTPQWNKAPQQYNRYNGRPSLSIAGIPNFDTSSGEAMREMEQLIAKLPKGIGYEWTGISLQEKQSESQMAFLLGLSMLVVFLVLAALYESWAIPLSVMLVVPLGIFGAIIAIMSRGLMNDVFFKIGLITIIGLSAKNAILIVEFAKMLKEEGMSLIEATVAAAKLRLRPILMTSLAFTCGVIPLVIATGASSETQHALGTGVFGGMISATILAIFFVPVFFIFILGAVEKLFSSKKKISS

K. pneumoniae = test: microbe, parasite or virus in culture; set-up: Broth microdilution MIC in 384-well plates after UVA exposure (2 J/cm2), A600 growth read-out; details: Klebsiella pneumoniae, 20 h, MDRb=Yes, UVA 365 nm, 2 J/cm2, modal MIC of three or more replicates
Method: (§1) For MIC determination, bacterial stocks frozen at −80°C were streaked onto tryptic soy agar plates containing 5% sheep blood (Remel), and grown overnight at 35°C in ambient air. Colonies were then suspended in 0.9% saline to 0.5 McFarland, measured using a Densicheck (bioMérieux); diluted 1:300 in cation-adjusted Mueller-Hinton broth (BD); and dispensed into 384-well polystyrene plates (Greiner Bio-One) at 50 μL per well with the following exceptions: For MIC determinations with AG100AX strains containing pAdeC and pAdeAB plasmids, −80°C frozen stocks were inoculated directly into non-cation-adjusted Mueller-Hinton broth containing 100 μg/mL ampicillin, 50 μg/mL nourseothricin, 5 mM calcium chloride, and 5 mM magnesium chloride, with or without adeABC induction using 1% L-arabinose and 1.0 mM Isopropyl β-D-1-thiogalactopyranoside (IPTG), and grown overnight at 37°C in 15 mL conical tubes with continual rotation. Bacterial cultures were then adjusted to 0.5 McFarland and diluted 1:300 in the same medium, and dispensed as above. Induction of other cloned efflux pumps was with 1% L-arabinose (or 0.5% L-arabinose for cloned P. aeruginosa pumps) in the absence of supplemental divalent cations. Lastly, P. aeruginosa PAO1 strains were dispensed into 96-well plates to avoid skipped-well effects observed in 384-well plate format. Filled microplates were centrifuged at 1250 rcf for 4 min to ensure the entire inoculum was in continuity with the bottom of the well. Then, 2-fold doubling dilutions of stock solutions of amotosalen, AMT, or 8-MOP supplemented with 0.3% Tween 20 (Sigma-Aldrich) were dispensed into microwells using the HP D300 digital dispensing system (HP, Inc.), as previously described ([87][–][90]), and the microplates were mixed for 5 min on a microplate shaker to ensure complete mixing of psoralens with the inoculum. Microplates were then exposed to UV light in a UV Stratalinker 1800 (Stratagene), retrofitted with UV BL F8T5 CFL 12-inch UVA 365 nm Blacklight Bulbs (Coolspider), and calibrated according to manufacturer’s instructions with an UVA365 UV Light Meter (Amtast) for a total exposure of 2 Joules/cm^2 of UVA, to approximate exposure during platelet pathogen inactivation ([10]). Testing of control antibiotics was performed in an identical fashion, however, without UVA exposure. After incubation at 35°C for 20 h, the A600 was measured using a TECAN M1000 microplate reader. MICs were determined based on a growth inhibition A600 cutoff of 0.06, which is consistent with our prior determinations of Clinical and Laboratory Standards Institute reference standard equivalent, MIC determinations in 384-well plate format ([88], [90], [91]). […] The concentrations of MgCl2 and CaCl2 used were empirically determined previously to be optimal for efflux of minocycline and ethidium bromide (data not shown).

E. coli = test: microbe, parasite or virus in culture; set-up: Broth microdilution MIC in 384-well plates after UVA exposure (2 J/cm2), A600 growth read-out; details: Escherichia coli, 20 h, UVA 365 nm, 2 J/cm2, modal MIC of three or more replicates
Method: as §1

Burkholderia multivorans = test: microbe, parasite or virus in culture; set-up: Broth microdilution MIC in 384-well plates after UVA exposure (2 J/cm2), A600 growth read-out; details: Burkholderia multivorans, 20 h, read-out: Amotosalen Modal MIC (mM)a, Strain #=BEI NR-20533; MDRb=Unknown; UVA 365 nm, 2 J/cm2; modal MIC of three or more replicates
Method: as §1

Burkholderia cepacia = test: microbe, parasite or virus in culture; set-up: Broth microdilution MIC in 384-well plates after UVA exposure (2 J/cm2), A600 growth read-out; details: Burkholderia cepacia, 20 h, read-out: Amotosalen Modal MIC (mM)a, Strain #=BEI NR-702; MDRb=Unknown; UVA 365 nm, 2 J/cm2; modal MIC of three or more replicates
Method: as §1

Burkholderia cenocepacia = test: microbe, parasite or virus in culture; set-up: Broth microdilution MIC in 384-well plates after UVA exposure (2 J/cm2), A600 growth read-out; details: Burkholderia cenocepacia, 20 h, MDRb=Unknown, UVA 365 nm, 2 J/cm2, modal MIC of three or more replicates
Method: as §1

[1] = system: Stenotrophomonas maltophilia; test: microbe, parasite or virus in culture; set-up: Broth microdilution MIC in 384-well plates after UVA exposure (2 J/cm2), A600 growth read-out; details: Stenotrophomonas maltophilia, 20 h, UVA 365 nm, 2 J/cm2, modal MIC of three or more replicates
Method: as §1

P. aeruginosa = test: microbe, parasite or virus in culture; set-up: Broth microdilution MIC in 384-well plates after UVA exposure (2 J/cm2), A600 growth read-out; details: Pseudomonas aeruginosa, 20 h, UVA 365 nm, 2 J/cm2, modal MIC of three or more replicates
Method: as §1

A. baumannii = test: microbe, parasite or virus in culture; set-up: Broth microdilution MIC in 384-well plates after UVA exposure (2 J/cm2), A600 growth read-out; details: Acinetobacter baumannii, 20 h, MDRb=Yes, UVA 365 nm, 2 J/cm2, modal MIC of three or more replicates
Method: as §1

Q: For Cc1oc2c(C)c3oc(=O)cc(C)c3cc2c1COCCN [amotosalen, 4′-(4-amino-2-oxa)butyl-4,5′,8-trimethylpsoralen], which Kd (AdeB) is on record?
A: 27.9 ± 1.8 µM

Q: What about the MIC (K. pneumoniae; read-out: Amotosalen Modal MIC (mM)a, Strain #=FDA-CDC 0113) of the same compound?
A: 0.128 mM

Q: And the MIC (K. pneumoniae; read-out: Amotosalen Modal MIC (mM)a, Strain #=FDA-CDC 0146)?
A: 0.256 mM

Q: What about the MIC (E. coli; read-out: Amotosalen Modal MIC (mM)a, Strain #=ATCC 25922e, MDRb=No) of the same compound?
A: 0.008 mM

Q: What about the MIC (E. coli; read-out: Amotosalen Modal MIC (mM)a, Strain #=FDA-CDC 0114, MDRb=Yes) of the same compound?
A: 0.128 mM

Q: What about the MIC (E. coli; read-out: Amotosalen Modal MIC (mM)a, Strain #=FDA-CDC 0118, MDRb=Yes) of the same compound?
A: 0.064 mM

Q: And the MIC (Burkholderia multivorans)?
A: > 0.256 mM

Q: And the MIC (Burkholderia cepacia)?
A: > 0.256 mM

Q: What about the MIC (Burkholderia cenocepacia; read-out: Amotosalen Modal MIC (mM)a, Strain #=BEI NR-701) of the same compound?
A: 0.128 mM

Q: What about the MIC (Burkholderia cenocepacia; read-out: Amotosalen Modal MIC (mM)a, Strain #=BEI NR-20535) of the same compound?
A: 0.256 mM

Q: And the MIC ([1]; read-out: Amotosalen Modal MIC (mM)a, Strain #=JEK154)?
A: 0.256 mM

Q: And the MIC ([1]; read-out: Amotosalen Modal MIC (mM)a, Strain #=JEK155)?
A: 0.064 mM

Q: What about the MIC (P. aeruginosa; read-out: Amotosalen Modal MIC (mM)a, Strain #=ATCC 27583e, MDRb=No) of the same compound?
A: < 0.004 mM

Q: And the MIC (P. aeruginosa; read-out: Amotosalen Modal MIC (mM)a, Strain #=FDA-CDC 229, MDRb=Yes)?
A: > 0.256 mM

Q: What about the MIC (P. aeruginosa; read-out: Amotosalen Modal MIC (mM)a, Strain #=FDA-CDC 230, MDRb=Yes) of the same compound?
A: 0.128 mM

Q: What about the MIC (P. aeruginosa; read-out: Amotosalen Modal MIC (mM)a, Strain #=FDA-CDC 232, MDRb=Yes) of the same compound?
A: 0.256 mM

Q: And the MIC (A. baumannii; read-out: Amotosalen Modal MIC (mM)a, Strain #=FDA-CDC 0292)?
A: 0.064 mM

Q: What about the MIC (A. baumannii; read-out: Amotosalen Modal MIC (mM)a, Strain #=WRAIR 15067) of the same compound?
A: 0.128 mM
